{
  "source": "patent US9597299B2",
  "about": "“Method for treating gefitinib-resistant non-small-cell lung cancer” (Macau University of Science and Technology, priority 2014, dated 2017)",
  "type_in_all_cases": "cell-based",
  "key": {"[1]": {"tested_on": "A549 (EGFR wild-type) NSCLC cells", "test": "cell viability assay, A549", "conditions": "Homo sapiens", "description": "(§1) Table 1 summarizes the IC50 values of five different cell lines treated with TMS."}, "[2]": {"tested_on": "EGFR PY1173", "test": "immunoblot analysis of EGFR PY1173, A549 cell lysate", "conditions": "A549 cells", "protocol": "(§2) Moreover, the inhibition of PY1173 activation happens as early as in 1 hour after TMS treatment."}, "[3]": {"tested_on": "BEAS-2B (normal epithelial cells)", "test": "cell viability assay, BEAS-2B", "conditions": "Homo sapiens", "description": "as §1"}, "[4]": {"tested_on": "H1975 cells", "test": "cell morphology and flow cytometry (apoptosis), H1975", "conditions": "gefitinib-resistant NSCLC cell lines (H1975), FIG. 2"}, "[5]": {"tested_on": "H820 (EGFR double mutation) gefitinib-resistant NSCLC cells", "test": "cell viability assay, H820", "conditions": "NCI-H820", "description": "as §1"}, "[6]": {"tested_on": "H358 (EGFR wild-type) NSCLC cells", "test": "cell viability assay, H358", "conditions": "Homo sapiens, NCI-H358", "description": "as §1"}, "[7]": {"tested_on": "H1975 cells", "test": "cell morphology, flow cytometry and relative cell viability, TMS with/without JNK inhibitor, H1975", "conditions": "TMS alone, groups: control, FIG. 6"}, "[8]": {"tested_on": "H1975 cells", "test": "relative cell viability, TMS with/without compound c, H1975"}, "[9]": {"tested_on": "EGFR PY1173", "test": "immunoblot analysis of EGFR PY1173, H1975 cell lysate", "protocol": "as §2"}, "[10]": {"tested_on": "mammalian target of rapamycin (mTOR)", "test": "proteomic analysis of apoptosis markers", "conditions": "proteomics, gefitinib-resistant NSCLC cells, FIG. 3", "description": "FIG. 3 is a schematic diagram showing the proteomic analysis result of TMS on different markers involved in apoptosis of gefitinib-resistant non-small-cell lung cancer cells."}, "[11]": {"tested_on": "H1975 (EGFR double mutation) gefitinib-resistant NSCLC cells", "test": "cell viability assay, H1975", "description": "as §1"}},
  "data": [
    {"smiles": "COc1ccc(/C=C\\c2cc(OC)c(OC)c(OC)c2)cc1", "note": "[TMS, (Z)3,4,5,4′-tetramethoxystilbene]", "values": [
      {"measurement": "IC50", "setting": "[1]", "result": "> 400", "unit": "nM"},
      {"measurement": "inhibitory effect on EGFR (PY1173)", "setting": "[2]", "result": "not detected"},
      {"measurement": "suppression of EGFR PY1173", "setting": "[2]; 10-time higher concentration of TMS", "result": "no suppression of EGFR PY1173 was observed"},
      {"measurement": "IC50", "setting": "[3]", "result": "> 400", "unit": "nM"},
      {"measurement": "induction of apoptosis", "setting": "[4]", "result": "inducing apoptosis"},
      {"measurement": "IC50", "setting": "[5]", "result": "136 ± 35.9", "unit": "nM"},
      {"measurement": "IC50", "setting": "[6]", "result": "> 400", "unit": "nM"},
      {"measurement": "apoptosis induction / relative cell viability among four treatment groups", "setting": "[7]", "result": "most effective in inducing apoptosis"},
      {"measurement": "apoptosis induction / relative cell viability among four treatment groups", "setting": "[8]; TMS alone (40 nM), groups: control, compound c, TMS, FIG. 4", "result": "most effective in inducing apoptosis"},
      {"measurement": "time to inhibition of PY1173 activation after TMS treatment", "setting": "[9]; H1975, fixed concentration of TMS", "result": "≤ 1", "unit": "h"},
      {"measurement": "activation of EGFR PY1173", "setting": "[9]; TMS at 40, 60 and 80 nM, gefitinib-resistant NSCLC cells (H1975)", "result": "inhibits the activation of EGFR PY1173"},
      {"measurement": "effect on mTOR", "setting": "[10]", "result": "significantly inhibited"},
      {"measurement": "selectivity for gefitinib-resistant NSCLC cells over normal and EGFR wild-type cells", "setting": "[11]; H1975 and H820 versus BEAS-2B, A549, H358", "result": "selectivity on gefitinib-resistant NSCLC cells"},
      {"measurement": "IC50", "setting": "[11]; Homo sapiens, NCI-H1975, H1975 (EGFR double mutation), cell viability", "result": "57.2 ± 13.5", "unit": "nM"}
    ]},
    {"smiles": "c1cc(-c2cnn3cc(-c4ccc(OCCN5CCCCC5)cc4)cnc23)ccn1", "note": "[compound c, reference compound]", "values": [
      {"measurement": "effect of compound c on the effect of TMS", "setting": "[8]; H1975, FIG. 4", "result": "counteracts the effect of TMS"}
    ]}
  ]
}
